Results: patent US20240000767A1, “COMBINATION OF AN ALPHA2-ADRENOCEPTOR SUBTYPE C (ALPHA-2C) ANTAGONIST WITH A TASK1/3 CHANNEL BLOCKER FOR THE TREATMENT OF SLEEP APNEA” (Bayer Aktiengesellschaft, priority 2020, published 2024)

Key:
human ADRA2C receptor [1] = molecular target: T1, human ADRA2C receptor (Homo sapiens (Human), UniProt P18825); experiment: In vitro activity assay to determine the inhibition of recombinant ADRA2C (CHO-K1 cells, aequorin bioluminescence); assay type: cell-based; details: inhibition of noradrenaline-induced bioluminescence signal; some mean values from multiple determinations; read-out: ARα2C IC50
T1 sequence (P18825 whole entry): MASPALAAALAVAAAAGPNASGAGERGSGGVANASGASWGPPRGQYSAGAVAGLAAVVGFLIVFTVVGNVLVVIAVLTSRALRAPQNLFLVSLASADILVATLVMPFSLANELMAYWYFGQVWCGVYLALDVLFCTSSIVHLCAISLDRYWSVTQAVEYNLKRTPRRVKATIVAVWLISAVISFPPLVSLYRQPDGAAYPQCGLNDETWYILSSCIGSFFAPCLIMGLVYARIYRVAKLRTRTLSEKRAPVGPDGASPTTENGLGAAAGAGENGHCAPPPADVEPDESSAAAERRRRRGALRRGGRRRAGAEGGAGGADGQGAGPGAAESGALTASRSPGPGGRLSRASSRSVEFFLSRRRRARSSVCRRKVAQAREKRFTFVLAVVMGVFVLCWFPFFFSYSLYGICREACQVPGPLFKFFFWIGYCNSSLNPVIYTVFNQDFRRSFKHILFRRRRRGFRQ
In short: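 IC50 is the concentration halving the agonist (noradrenaline)-evoked rise in aequorin luminescence, fitted by 4-parameter Hill function. Read in stable Gαq/aequorin CHO-K1 cells expressing recombinant human ADRA2C.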

human ADRA2C receptor [2] = molecular target: T1, human ADRA2C receptor; experiment: In vitro radioligand binding studies ([3H] rauwolscine competition) at the human adrenoreceptor ADRA2C
Description: B-1 In Vitro Radioligand Binding Studies for Determination of the Dissociation Constants K1 at the Human Adrenoreceptor ADRA2C (Eurofins Panlabs Discovery Services, Taiwan, Ltd)
A competition assay based on [^3H] rauwolscine as radioliganden was used to determine the binding affinity of the test substances at the human ADRA2C receptor.
To configure the competition assay, the equilibrium dissociation constant Kd of the radioligand [^3H] rauwolscine was determined in a saturation experiment. To this end, homogenates of CHO-K1 cells recombinantly expressing the human ADRA2C receptor were incubated with increasing concentrations of the radiotracers for 1 h at 4° C. in binding buffer (50 mM Tris-HCl, 1 mM EDTA, pH 7.4). Unspecific binding was determined by addition of an excess of the not radioactively labelled ligand prazosin (10 μM). The radioactivity was determined in a scintiation counter.
The competition experiments were carried out in the presence of 0.5 nM [^3H] rauwolscine and increasing concentrations of the test substances to be characterized under the conditions described above.
From the IC50 value measured in the competition experiment and the […] from the saturation experiment, the equilibrium constant Ki of the inhibitor, which describes the affinity of the test substances to the receptor, was calculated using the Cheng Prusoff equation [Cheng Y, Prusoff WH. Relationship between the inhibition constant (Ki) and the concentration of inhibitor which causes 50 percent inhibition (I50) of an enzymatic reaction. […] PMID 4202581 PMID: 4202581].

Q: Which results are given for C[C@@H]1CCCN(C2CCN(c3ncc(C(=O)NCc4ncc(F)cc4F)s3)CC2)C1 [Example 1, N-[(3,5-Difluoropyridin-2-yl)methyl]-2-[(3R)-3-methyl[1,4′-bipiperidin]-1′-yl]-1,3-thiazole-5-carboxamide]?
A: IC50 (human ADRA2C receptor [1]): 121 nM; IC50 (human ADRA2C receptor [2]; 0.5 nM [3H] rauwolscine, homogenates of CHO-K1 cells expressing human ADRA2C, 1 h at 4° C., read-out: hARα2C IC50): 54 nM; Ki (human ADRA2C receptor [2]; calculated from IC50 and Kd with the Cheng Prusoff equation, read-out: hARα2C Ki): 24 nM
